What was measured:
Type in all cases: functional
NCI-H23 = assay: Cytotoxicity against human NCI-H23 cells assessed as growth inhibition at 10 uM after 48 hrs by coulter counter analysis; settings: NCI-H23, 48 h, read-out: GI
SNB-19 = assay: Cytotoxicity against human SNB19 cells assessed as growth inhibition at 10 uM after 48 hrs by coulter counter analysis; settings: SNB-19, 48 h, read-out: GI
[1] = Cytotoxicity against human EKVX cells assessed as growth inhibition at 10 uM after 48 hrs by coulter counter analysis; settings: read-out: GI
HCT-15 = assay: Cytotoxicity against human HCT15 cells assessed as growth inhibition at 10 uM after 48 hrs by coulter counter analysis; settings: HCT-15, 48 h, read-out: GI
OVCAR-3 = assay: Cytotoxicity against human OVCAR3 cells assessed as growth inhibition at 10 uM after 48 hrs by coulter counter analysis; settings: OVCAR-3, 48 h, read-out: GI
OVCAR-8 = assay: Cytotoxicity against human OVCAR8 cells assessed as growth inhibition at 10 uM after 48 hrs by coulter counter analysis; settings: OVCAR-8, 48 h, read-out: GI
SK-OV-3 = assay: Cytotoxicity against human SKOV3 cells assessed as growth inhibition at 10 uM after 48 hrs by coulter counter analysis; settings: SK-OV-3, 48 h, read-out: GI
A549 = assay: Cytotoxicity against human A549 cells assessed as growth inhibition at 10 uM after 48 hrs by coulter counter analysis; settings: A549, 48 h, read-out: GI
COLO 205 = assay: Cytotoxicity against human COLO205 cells assessed as growth inhibition at 10 uM after 48 hrs by coulter counter analysis; settings: COLO 205, 48 h, read-out: GI
OVCAR-4 = assay: Cytotoxicity against human OVCAR4 cells assessed as growth inhibition at 10 uM after 48 hrs by coulter counter analysis; settings: OVCAR-4, 48 h, read-out: GI
T47D = assay: Cytotoxicity against human T47D cells assessed as growth inhibition at 10 uM after 48 hrs by coulter counter analysis; settings: read-out: GI
Hs-578T = assay: Cytotoxicity against human Hs578T cells assessed as growth inhibition at 10 uM after 48 hrs by coulter counter analysis; settings: read-out: GI
[2] = Cytotoxicity against human NCI-ADR-RES cells assessed as growth inhibition at 10 uM after 48 hrs by coulter counter analysis; settings: read-out: GI
SF-539 = assay: Cytotoxicity against human SF539 cells assessed as growth inhibition at 10 uM after 48 hrs by coulter counter analysis; settings: SF-539, 48 h, read-out: GI
HOP-62 = assay: Cytotoxicity against human HOP62 cells assessed as growth inhibition at 10 uM after 48 hrs by coulter counter analysis; settings: HOP-62, 48 h, read-out: GI
Malme-3M = assay: Cytotoxicity against human MALME-3M cells assessed as growth inhibition at 10 uM after 48 hrs by coulter counter analysis; settings: read-out: GI
PC-3 = assay: Cytotoxicity against human PC3 cells assessed as growth inhibition at 10 uM after 48 hrs by coulter counter analysis; settings: PC-3, 48 h, read-out: GI
NCI-H322M = assay: Cytotoxicity against human NCI-H322M cells assessed as growth inhibition at 10 uM after 48 hrs by coulter counter analysis; settings: read-out: GI
BT-549 = assay: Cytotoxicity against human BT549 cells assessed as growth inhibition at 10 uM after 48 hrs by coulter counter analysis; settings: BT-549, 48 h, read-out: GI
OVCAR-5 = assay: Cytotoxicity against human OVCAR5 cells assessed as growth inhibition at 10 uM after 48 hrs by coulter counter analysis; settings: OVCAR-5, 48 h, read-out: GI
HCC 2998 = assay: Cytotoxicity against human HCC2998 cells assessed as growth inhibition at 10 uM after 48 hrs by coulter counter analysis; settings: HCC 2998, 48 h, read-out: GI
SW-620 = assay: Cytotoxicity against human SW620 cells assessed as growth inhibition at 10 uM after 48 hrs by coulter counter analysis; settings: SW-620, 48 h, read-out: GI
LOX IMVI = assay: Cytotoxicity against human LOXIMVI cells assessed as growth inhibition at 10 uM after 48 hrs by coulter counter analysis; settings: read-out: GI
NCI-H460 = assay: Cytotoxicity against human NCI-H460 cells assessed as growth inhibition at 10 uM after 48 hrs by coulter counter analysis; settings: NCI-H460, 48 h, read-out: GI
SF-268 = assay: Cytotoxicity against human SF268 cells assessed as growth inhibition at 10 uM after 48 hrs by coulter counter analysis; settings: SF-268, 48 h, read-out: GI
SNB-75 = assay: Cytotoxicity against human SNB75 cells assessed as growth inhibition at 10 uM after 48 hrs by coulter counter analysis; settings: SNB-75, 48 h, read-out: GI
RXF 393 = assay: Cytotoxicity against human RXF393 cells assessed as growth inhibition at 10 uM after 48 hrs by coulter counter analysis; settings: RXF 393, 48 h, read-out: GI
HT-29 = assay: Cytotoxicity against human HT-29 cells assessed as growth inhibition at 10 uM after 48 hrs by coulter counter analysis; settings: HT-29, 48 h, read-out: GI
HCT-116 = assay: Cytotoxicity against human HCT116 cells assessed as growth inhibition at 10 uM after 48 hrs by coulter counter analysis; settings: HCT-116, 48 h, read-out: GI
KM12 = assay: Cytotoxicity against human KM12 cells assessed as growth inhibition at 10 uM after 48 hrs by coulter counter analysis; settings: KM12, 48 h, read-out: GI
U-251 = assay: Cytotoxicity against human U251 cells assessed as growth inhibition at 10 uM after 48 hrs by coulter counter analysis; settings: U-251, 48 h, read-out: GI
UACC-62 = assay: Cytotoxicity against human UACC62 cells assessed as growth inhibition at 10 uM after 48 hrs by coulter counter analysis; settings: UACC-62, 48 h, read-out: GI
786-0 = assay: Cytotoxicity against human 786-0 cells assessed as growth inhibition at 10 uM after 48 hrs by coulter counter analysis; settings: 786-0, 48 h, read-out: GI
UO-31 = assay: Cytotoxicity against human UO31 cells assessed as growth inhibition at 10 uM after 48 hrs by coulter counter analysis; settings: UO-31, 48 h, read-out: GI
MDA-MB-435 = assay: Cytotoxicity against human MDA-MB-435 cells assessed as growth inhibition at 10 uM after 48 hrs by coulter counter analysis; settings: MDA-MB-435, 48 h, read-out: GI
IGROV-1 = assay: Cytotoxicity against human IGROV1 cells assessed as growth inhibition at 10 uM after 48 hrs by coulter counter analysis; settings: IGROV-1, 48 h, read-out: GI
A498 = assay: Cytotoxicity against human A498 cells assessed as growth inhibition at 10 uM after 48 hrs by coulter counter analysis; settings: A498, 48 h, read-out: GI
TK-10 = assay: Cytotoxicity against human TK10 cells assessed as growth inhibition at 10 uM after 48 hrs by coulter counter analysis; settings: TK-10, 48 h, read-out: GI

Row | Compound | inhibition of growth at 10 µM (NCI-H23) | inhibition of growth at 10 µM (SNB-19) | inhibition of growth at 10 µM (HCT-15) | inhibition of growth at 10 µM (OVCAR-3) | inhibition of growth at 10 µM (OVCAR-8) | inhibition of growth at 10 µM (SK-OV-3) | inhibition of growth at 10 µM (A549) | inhibition of growth at 10 µM (COLO 205) | inhibition of growth at 10 µM (OVCAR-4) | inhibition of growth at 10 µM (T47D) | inhibition of growth at 10 µM (Hs-578T) | inhibition of growth at 10 µM [2] | inhibition of growth at 10 µM (SF-539) | inhibition of growth at 10 µM (Malme-3M) | inhibition of growth at 10 µM (PC-3) | inhibition of growth at 10 µM (NCI-H322M) | inhibition of growth at 10 µM (OVCAR-5) | inhibition of growth at 10 µM (HCC 2998) | inhibition of growth at 10 µM (SW-620) | inhibition of growth at 10 µM (LOX IMVI) | also measured
1 | CC(=O)c1ccc(NC(=O)CSc2nc3ccccc3c(=O)n2CCc2ccccc2)cc1 | 12% | 20% | 21% | 23% | 42% | 17% | 29% | 12% | 25% | 19% | 33% | 33% | < 10% | 13% | 20% | 27% | 10% | < 10% | 14% | 25% | inhibition of growth at 10 µM [1]: 29%; inhibition of growth at 10 µM (HOP-62): 22%; inhibition of growth at 10 µM (BT-549): < 10%; inhibition of growth at 10 µM (NCI-H460): 31%; inhibition of growth at 10 µM (SF-268): 32%; inhibition of growth at 10 µM (SNB-75): 41%; inhibition of growth at 10 µM (RXF 393): < 10%; inhibition of growth at 10 µM (HT-29): 12%; inhibition of growth at 10 µM (HCT-116): 37%; inhibition of growth at 10 µM (KM12): 18%; inhibition of growth at 10 µM (U-251): 10%; inhibition of growth at 10 µM (UACC-62): 28%; inhibition of growth at 10 µM (786-0): < 10%; inhibition of growth at 10 µM (UO-31): 10%; inhibition of growth at 10 µM (MDA-MB-435): 23%; inhibition of growth at 10 µM (IGROV-1): 20%; inhibition of growth at 10 µM (A498): < 10%; inhibition of growth at 10 µM (TK-10): < 10%
2 | O=C(CSc1nc2ccccc2c(=O)n1CCc1ccccc1)Nc1ccc(Cl)cc1 | 21% | 30% | 16% | 32% | 39% | 43% | 16% | 15% | 14% | 56% | 45% | 21% | 41% | < 10% | 30% | 13% | < 10% | < 10% | 11% | 23% | inhibition of growth at 10 µM [1]: 29%; inhibition of growth at 10 µM (HOP-62): 40%; inhibition of growth at 10 µM (NCI-H460): 32%; inhibition of growth at 10 µM (SF-268): 40%; inhibition of growth at 10 µM (SNB-75): 63%; inhibition of growth at 10 µM (RXF 393): 22%; inhibition of growth at 10 µM (HT-29): < 10%; inhibition of growth at 10 µM (HCT-116): 23%; inhibition of growth at 10 µM (KM12): 14%; inhibition of growth at 10 µM (U-251): 25%; inhibition of growth at 10 µM (UACC-62): 34%; inhibition of growth at 10 µM (786-0): 13%; inhibition of growth at 10 µM (UO-31): 28%; inhibition of growth at 10 µM (MDA-MB-435): 13%; inhibition of growth at 10 µM (IGROV-1): 36%; inhibition of growth at 10 µM (A498): < 10%; inhibition of growth at 10 µM (TK-10): 19%
3 | O=C(CSc1nc2ccccc2c(=O)n1CCc1ccccc1)Oc1ccccc1 | 14% | < 10% | < 10% | < 10% | 23% | 28% | 12% | < 10% | 59% | 14% | < 10% | 22% | < 10% | 16% | 14% | 25% | < 10% | < 10% | < 10% | 16% | inhibition of growth at 10 µM (BT-549): < 10%; inhibition of growth at 10 µM (NCI-H460): 14%; inhibition of growth at 10 µM (SF-268): 16%; inhibition of growth at 10 µM (SNB-75): 28%; inhibition of growth at 10 µM (RXF 393): < 10%; inhibition of growth at 10 µM (HT-29): < 10%; inhibition of growth at 10 µM (HCT-116): 21%; inhibition of growth at 10 µM (KM12): < 10%; inhibition of growth at 10 µM (UACC-62): 19%; inhibition of growth at 10 µM (786-0): 13%; inhibition of growth at 10 µM (UO-31): 16%; inhibition of growth at 10 µM (MDA-MB-435): 19%; inhibition of growth at 10 µM (IGROV-1): 10%; inhibition of growth at 10 µM (A498): 18%; inhibition of growth at 10 µM (TK-10): < 10%
4 | O=C(CSc1nc2ccccc2c(=O)n1CCc1ccccc1)Nc1ccccc1C(=O)O | 26% | 40% | 12% | 29% | 61% | 53% | 46% | 35% | 23% | 27% | 45% | 34% | 44% | 18% | < 10% | 19% | < 10% | < 10% | 21% | 38% | inhibition of growth at 10 µM [1]: 25%; inhibition of growth at 10 µM (HOP-62): 49%; inhibition of growth at 10 µM (BT-549): 10%; inhibition of growth at 10 µM (NCI-H460): 41%; inhibition of growth at 10 µM (SF-268): 33%; inhibition of growth at 10 µM (SNB-75): 74%; inhibition of growth at 10 µM (RXF 393): 25%; inhibition of growth at 10 µM (HT-29): 11%; inhibition of growth at 10 µM (HCT-116): 45%; inhibition of growth at 10 µM (KM12): 10%; inhibition of growth at 10 µM (UACC-62): 21%; inhibition of growth at 10 µM (786-0): 16%; inhibition of growth at 10 µM (UO-31): < 10%; inhibition of growth at 10 µM (MDA-MB-435): 35%; inhibition of growth at 10 µM (IGROV-1): 42%; inhibition of growth at 10 µM (A498): 26%; inhibition of growth at 10 µM (TK-10): 19%
